Several values for one entry are separate records, joined by “and”; a condition that tells them apart may be missing. Equal entries are not always repeated. Where two headings read alike, the source gives them in different places.
Experiments:
[1] = tested on: P. falciparum ATQ_R1 strain; assay: SYBR Green growth assay, asexual blood stages, ATQ_R1 strain; type: cell-based, Plasmodium falciparum; settings: for IC50: Plasmodium falciparum
Procedure: (§1) Healthy blood samples for parasite culture were obtained from voluntary donors (approved under protocol #28176720.9.0000.0011), processed to remove white blood cells, and stored at 2 °C–8 °C for up to 15 days. Parasite strains SB1-A6, 7G8, V1/S, and HB3 were acquired from BEI-MR4, while the ATQ R1 strain, carrying a V259L gene mutation, was generated in-house. Infected erythrocytes were cultured in RPMI 1640 medium supplemented with Hepes, sodium bicarbonate, glucose, Albumax, and gentamicin, […], and incubated in a 5% CO2, 5% O2, and 90% N2 gas mixture at 37 °C with daily medium changes. Parasitemia was monitored using Giemsa-stained blood smears.
(§2) Bioassays were conducted with synchronized ring-stage parasites using sorbitol synchronization. Antimalarial compounds were evaluated in 96-well plates, and parasite growth was assessed using a SYBR Green-based fluorescence assay The assays were conducted when the parasite quantity reached at least 70% of the ring stage. Compounds were initially added at specific concentrations in the first wells, followed by serial dilution (1:2) ranging from 20 μM to 0.009 μM. Subsequently, a solution containing parasites in RPMI medium at a hematocrit of 2% was added to each well, and the parasites were then incubated for 72 h.
(§3) To assess parasite growth, the culture medium was replaced with a lysis solution (Trisbase: 49.31%, EDTA: 30.00%, Saponin: 0.16%, Triton: 0.02%) containing the fluorescent dye SYBR Green (Sigma). After a 30 min incubation, fluorescence readings were taken to determine the 50% inhibitory concentration (IC50) of parasite growth. The IC50 values were determined using concentration–response curves generated in GraphPad 8 software. Additionally, the resistance index was calculated by comparing IC50 values obtained for the sensitive 3D7 strain with those of the resistant strains.

P. falciparum 7G8 strain = assay: SYBR Green growth assay, asexual blood stages, 7G8 strain; type: cell-based, Plasmodium falciparum; settings: for IC50: Plasmodium falciparum
Procedure: as §1, §2, §3

[2] = tested on: P. berghei hepatic stages; assay: Hepatic stage bioluminescence assay, Huh-7 cells infected with luciferase-expressing sporozoites; type: cell-based, Plasmodium berghei; settings: Plasmodium berghei; Huh-7 cells, 48 h after sporozoite addition; read-out: IC50 (μM) Pb liver stages
Procedure: Huh-7 cells were cultured in RPMI 1640 medium (Sigma) supplemented with 10% v/v fetal bovine serum (FBS), 1% v/v penicillin/streptomycin, 1% v/v glutamine, 1% v/v nonessential amino acids, and 10 mM HEPES, pH 7. For compound dilution, a medium containing 1:1000 gentamicin (G) and 1:300 fungizone (F) was used. Cells were seeded at 1 × 10^4 cells/well in 96-well plates and incubated at 37 °C with 5% CO2. After 24 h, compounds were diluted in RPMI+F+G, and after removal of the culture medium, added to the cells in triplicate. DMSO and atovaquone were used as negative and positive controls, respectively. Following incubation for 1 h at 37 °C, 5% CO2, the cells were infected with luciferase-expressing P. berghei sporozoites (4,000 parasites per well) freshly extracted from the salivary glands of infected mosquitoes reared at the GIMM insectarium. The viability of Huh-7 cells exposed to the compounds was assessed 46 h later by the AlamarBlue assay (Invitrogen, UK) measurement, and parasite burden was measured 48 h after sporozoite addition using a bioluminescence assay (Biotium). IC50 values were calculated using GraphPad Prism through nonlinear regression analysis of normalized dose–response curves.

[3] = tested on: P. falciparum V1/S strain; assay: microbe, parasite or virus in culture; type: cell-based, Plasmodium falciparum; settings: for IC50: Plasmodium falciparum
Procedure: as §1, §2, §3

[4] = tested on: Plasmodium falciparum 3D7 sensitive strain; assay: SYBR Green growth assay, asexual blood stages, 3D7 sensitive strain; type: cell-based
Procedure: (§4) Parasite strains SB1-A6, 7G8, V1/S, and HB3 were acquired from BEI-MR4, while the ATQ R1 strain, carrying a V259L gene mutation, was generated in-house. […] Parasitemia was monitored using Giemsa-stained blood smears.
as §2
(§5) The IC50 values were determined using concentration–response curves generated in GraphPad 8 software. Additionally, the resistance index was calculated by comparing IC50 values obtained for the sensitive 3D7 strain with those of the resistant strains.

[5] = tested on: Plasmodium over mammalian cells; settings: specificity for Plasmodium over mammalian cells; previous studies; cited from earlier work
[6] = tested on: P. falciparum multidrug-resistant strains; assay: SYBR Green growth assay, summary over panel of resistant strains; type: cell-based; settings: Plasmodium falciparum
Procedure: as §1
Bioassays were conducted with synchronized ring-stage parasites using sorbitol synchronization. Antimalarial compounds were evaluated in 96-well plates, and parasite growth was assessed using a SYBR Green-based fluorescence assay The assays were conducted when the parasite quantity reached at least 70% of the ring stage. […]
To assess parasite growth, the culture medium was replaced with a lysis solution (Trisbase: 49.31%, EDTA: 30.00%, Saponin: 0.16%, Triton: 0.02%) containing the fluorescent dye SYBR Green (Sigma). […] The IC50 values were determined using concentration–response curves generated in GraphPad 8 software. […]

[7] = tested on: P. berghei exflagellation centers; assay: Ex vivo exflagellation assay, blood of P. berghei infected mice; type: cell-based, Plasmodium berghei; settings: 15 min incubation
Procedure: For the ex vivo assays, a female CD1 mouse between 4 and 5 weeks of age (n = 3) was infected with P. berghei. After 4 days, when the presence of parasites (sexual phases) in the blood was observed by Giemsa-stained blood smear microscopy, the total blood from the mouse was collected into a preheated tube at 37 °C containing RPMI medium supplemented with 20% Fetal Bovine Serum (FBS) and 200 units/mL of heparin as an anticoagulant. The tube was maintained at 37 °C and centrifuged at 1500 rpm for 5 min. The supernatant was discarded, and the blood was resuspended in 20 mL of RPMI medium supplemented with 20% FBS.
One milliliter of resuspended blood was added to each well of a 6-well plate containing 5 μM methylene blue (positive control), test compound 1 at 10 μM and 1 μM, and DMSO (negative control). After 15 min, the wells were homogenized, and 10 μL of the content was collected into an Eppendorf tube and incubated at room temperature for another 15 min. The sample was then transferred to a Neubauer chamber, and exflagellation centers were counted using an optical microscope at 40× magnification.

P. falciparum HB3 strain = assay: SYBR Green growth assay, asexual blood stages, HB3 strain; type: cell-based, Plasmodium falciparum; settings: for IC50: Plasmodium falciparum
Procedure: as §4, §2, §5

[8] = Plasmodium falciparum, 3D7, 72 h, asexual blood stages, 3D7 sensitive strain, 72 h, read-out: IC50
[9] = asexual blood stages, 3D7 sensitive strain, 72 h, read-out: IC50

In the case of `CCCCCCCCCCCc1cc(=O)c2ccccc2[nH]1` [compound 1, 2-Undecilquinolin-4(1H)-one], the IC50 ([1]; 72 h) is reported as 600 ± 100 nM, the IC50 ([1]; read-out: IC50 (Figure S1)) is reported as 800 nM and the “RI (resistance index)” value ([1]; ratio of IC50 ATQ_R1 to 3D7) is reported as 3.0. For the same molecule, the IC50 (P. falciparum 7G8 strain; 7G8, strain assigned by order of panels, read-out: IC50 (Figure S1)) was 200 nM, the IC50 (P. falciparum 7G8 strain; 7G8 strain, 72 h, read-out: IC50) was 270 ± 10 nM and the “RI (resistance index)” value (P. falciparum 7G8 strain; ratio of IC50 7G8 to 3D7) was 1.3. It also gave an IC50 [2] of 0.25 ± 0.01 µM, an IC50 ([3]; 72 h) of 800 ± 100 nM and an IC50 ([3]; read-out: IC50 (Figure S1)) of 700 nM. The “RI (resistance index)” value ([3]; ratio of IC50 V1S to 3D7) was 4.0, the IC50 ([4]; Plasmodium falciparum, 3D7, 3D7, strain assigned by order of panels, read-out: IC50 (Figure S1)) was 270 nM and the IC50 [4, 8] was 210 ± 40 nM. The IC50 [4, 9] was 200 ± 100 nM, the “selectivity index (SI)” value [5] was greater than 120 and the IC50 ([6]; HB3, read-out: IC50 values) was 60 to 800 nM. The IC50 ([6]; TM90C6B, read-out: submicromolar activity) was 290 to 790 nM, the “reduction of exflagellation centers (ex vivo)” value ([7]; 1 μM) was 23,8% and 24% and the “reduction of exflagellation centers (ex vivo)” value ([7]; 10 μM) was 63,9% and 64%. The IC50 (P. falciparum HB3 strain; HB3, strain assigned by order of panels, read-out: IC50 (Figure S1)) was 260 nM, the IC50 (P. falciparum HB3 strain; HB3 strain, 72 h, read-out: IC50) was 430 ± 50 nM and the “RI (resistance index)” value (P. falciparum HB3 strain; ratio of IC50 HB3 to 3D7) was 2.1.

With `CCCCCCOc1ccc(-c2cc(=O)c3ccccc3[nH]2)cc1` [compound 6, 2-(4-(Hexyloxy)-phenyl)-quinolin-4(1H)-one] the IC50 [2] was 0.38 ± 0.04 µM, the IC50 [4, 8] was 560 ± 70 nM and the IC50 [4, 9] was 500 nM.
